The text below walks through data of paper PMC10106425 (ACS infectious diseases, 2023).

As usually defined, the EC50 is the concentration that produces a half-maximal response. The IC50 is the point on the concentration scale where inhibition reaches its midpoint. As a reminder, the remaining activity is the activity still measured, relative to the control.

For test [1], the system named is Plasmodium falciparum strain Dd2. Kind of test: SYBR Green I proliferation assay, asynchronous blood stage, Dd2. The following applies: for EC50: read-out: Pf Dd2 EC50. It counts as cell-based.
Test [2] concerns HepG2 cells. Kind of test: Cytotoxicity assay. In kind it is cell-based, human. To be noted: for EC50: read-out: HepG2 EC50.
Test [3] deals with human PLK1. The following applies: read-out: PLK1 IC50, from prior publication or from Selleck Chemicals ref 15, 16; cited from earlier work.
In test [4] the test system is P. falciparum Dd2. Kind of test: Flow-cytometry rate of killing assay. In kind it is cell-based, Plasmodium falciparum. To be noted: 10 × EC50.
Test [5] has as its target PK5 (Plasmodium falciparum, UniProt P61075). Kind of test: KinaseSeeker split-luciferase competitive binding assay. Further details: species or system P. falciparum. The following applies: read-out: % activity remaining at 2.5 μM, PK5.
Test [6] deals with CDPK2 (Plasmodium falciparum, UniProt Q8ICR0). Described as above. Further details: species or system P. falciparum. The following applies: read-out: % activity remaining at 2.5 μM, CDPK2.
Test [7] has as its system Plasmodium falciparum strain 3D7. Kind of test: SYBR Green I proliferation assay, asynchronous blood stage, 3D7.
The target in test [8] is CDPK5 (Plasmodium falciparum, UniProt A0A5K1K8H0). Kind of test: KinaseSeeker split-luciferase competitive binding assay. The following applies: read-out: % activity remaining at 2.5 μM, CDPK5. Further details: species or system P. falciparum.
Test [9] has as its target Pf NEK3 (PF3D7_1201600) (Plasmodium falciparum, UniProt Q8I629). Description: biochemical. To be noted: for remaining activity at 2.5 µM: read-out: % activity remaining at 2.5 μM, NEK3. In kind it is binding.
Test [10] has as its target GSK3 (Plasmodium falciparum, UniProt O77344). Kind of test: KinaseSeeker split-luciferase competitive binding assay. The following applies: read-out: % activity remaining at 2.5 μM, GSK3. Further details: species or system P. falciparum.
Test [11] concerns the target PK6 (Plasmodium falciparum, UniProt O77239). Described as above. On the set-up: species or system P. falciparum. The following applies: read-out: % activity remaining at 2.5 μM, PK6.
Test [12] relates to PfARK3. The test is described as above. On the set-up: species or system P. falciparum.
For test [13], the system named is Pf NEK1. The test is described as above. Further details: species or system P. falciparum.
In test [14] the test system is PK9. The test is described as above. On the set-up: species or system P. falciparum.
The target in test [15] is PKB (Plasmodium falciparum, UniProt Q8I4W3). The description is as above. Further details: species or system P. falciparum. To be noted: read-out: % activity remaining at 2.5 μM, PKB.
The subject of test [16] is PfARK1. The description is as above. Further details: species or system P. falciparum.
The subject of test [17] is synchronized Dd2 parasites. Kind of test: Stage-specific assay. It counts as cell-based, Plasmodium falciparum. The following applies: 5 × EC50 applied later in the ring stage (18 HPI).
The test system of test [18] is PfARK2. Description: Radioactive kinase assay. It counts as biochemical, P. falciparum. To be noted: highest concentration tested 2 μM.
In test [19] the test system is PfARK2. Description: ADP-Glo kinase assay. In kind it is biochemical, P. falciparum. To be noted: up to 5 μM. (In general: In ADP-Glo the light output rises with the ADP produced.)
Setting [20] is: Plasmodium falciparum, DD2, 72 h.
[21] abbreviates: 3D7, 72 h, read-out: Pf 3D7 EC50.
Setting [22] is: 72 h, average ± SEM, at least three biological replicates.
[23] abbreviates: 48 h, average ± SEM, at least three biological replicates.

Where two headings read alike, the source gives them in different places.

Sequence of PK5 (P61075 whole entry): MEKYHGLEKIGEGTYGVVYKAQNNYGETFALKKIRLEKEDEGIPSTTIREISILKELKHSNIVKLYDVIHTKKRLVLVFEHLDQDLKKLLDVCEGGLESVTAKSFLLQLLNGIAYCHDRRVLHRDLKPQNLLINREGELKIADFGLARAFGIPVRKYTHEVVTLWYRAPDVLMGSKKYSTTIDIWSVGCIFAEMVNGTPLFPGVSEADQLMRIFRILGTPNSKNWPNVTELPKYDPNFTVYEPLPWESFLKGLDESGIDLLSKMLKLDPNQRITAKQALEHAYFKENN
Sequence of CDPK5 (A0A5K1K8H0 whole entry): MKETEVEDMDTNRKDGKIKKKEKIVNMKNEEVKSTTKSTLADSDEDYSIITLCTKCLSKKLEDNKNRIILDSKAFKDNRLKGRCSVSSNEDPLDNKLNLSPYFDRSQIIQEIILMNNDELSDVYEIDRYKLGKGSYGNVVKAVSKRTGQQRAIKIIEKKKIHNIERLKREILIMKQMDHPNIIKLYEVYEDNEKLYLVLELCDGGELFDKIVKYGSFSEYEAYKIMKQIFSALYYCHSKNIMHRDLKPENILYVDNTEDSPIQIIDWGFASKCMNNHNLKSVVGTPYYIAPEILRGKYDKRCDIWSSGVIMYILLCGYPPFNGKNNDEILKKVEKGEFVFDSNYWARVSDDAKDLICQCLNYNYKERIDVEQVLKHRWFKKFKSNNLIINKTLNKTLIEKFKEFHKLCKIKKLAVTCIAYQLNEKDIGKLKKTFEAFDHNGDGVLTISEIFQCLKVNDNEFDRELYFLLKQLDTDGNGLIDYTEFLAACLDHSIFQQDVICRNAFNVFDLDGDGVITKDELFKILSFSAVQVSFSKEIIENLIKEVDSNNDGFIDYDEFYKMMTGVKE
Sequence of CDPK2 (Q8ICR0 whole entry): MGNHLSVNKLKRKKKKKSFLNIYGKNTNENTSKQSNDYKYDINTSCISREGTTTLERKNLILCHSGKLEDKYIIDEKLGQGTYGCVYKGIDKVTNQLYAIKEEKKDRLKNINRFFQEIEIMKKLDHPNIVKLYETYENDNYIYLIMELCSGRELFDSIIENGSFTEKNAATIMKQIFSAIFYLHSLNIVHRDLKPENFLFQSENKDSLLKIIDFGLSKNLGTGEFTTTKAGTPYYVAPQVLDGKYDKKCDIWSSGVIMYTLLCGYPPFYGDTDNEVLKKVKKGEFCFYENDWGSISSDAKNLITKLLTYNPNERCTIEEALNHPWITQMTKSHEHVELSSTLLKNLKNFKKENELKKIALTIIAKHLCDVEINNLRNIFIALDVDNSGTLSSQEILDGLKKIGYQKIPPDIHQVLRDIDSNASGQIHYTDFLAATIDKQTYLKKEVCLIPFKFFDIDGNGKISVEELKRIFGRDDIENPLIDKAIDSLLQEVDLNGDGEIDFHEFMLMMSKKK

In the case of `COc1cc(OC)c(/C=C/S(=O)(=O)Cc2ccc(OC)c(NCC(=O)O)c2)c(OC)c1` [ON-01910 (16), ON-01910], the EC50 in [1] (setting [20]) was over 5000 nM; in [2] (Homo sapiens, HepG2, 48 h), 11900 nM. Moreover, in [2], the “Selectivity Index (SI) = HepG2 EC50/Dd2 EC50” value (from here on “Selectivity Index”) is recorded as […]. Further, the IC50 in [3] is […].
In the case of `CC[C@@H]1C(=O)N(C)c2cnc(Nc3ccc(C(=O)N[C@H]4CC[C@H](N5CCN(CC6CC6)CC5)CC4)cc3OC)nc2N1C(C)C` [BI-6727 (11), BI-6727], the “compound incubation required for a full killing effect” value (“compound incubation required” below) in [4] lay within 24 to 48 h. In addition, the “Resistance Index (RI) = Dd2 EC50/3D7 EC50” value in test [1] was found to be 0.81. For the same molecule, the concentration giving a half-maximal response (EC50) in [1] (setting [20]) amounted to 230 ± 14 nM; in test [2] (Homo sapiens, HepG2, 48 h), 1930 ± 460 nM; in test [7] (setting [21]), 284 ± 52 nM. The “Selectivity Index” value in test [2] came out at 8.0. Moreover, the remaining activity at 2.5 µM in [5] worked out at 100%; in test [6], 100%; in [8], 100%; in test [9], 11.1%; in test [10], 100%; in test [11], 67.3%. For the same molecule, the remaining activity at 2.5 µM in [15] stood at 49.3%. Further, the IC50 in [9] was 130 nM; in test [3], 0.87 nM. Also, in [12], the “% activity remaining at 2.5 μM, ARK3” value was 83.6%. In addition, in test [13], the “% activity remaining at 2.5 μM, NEK1” value was found to be 93.8%. The “% activity remaining at 2.5 μM, PK9” value in test [14] is 100.0%. Besides, the “% activity remaining at 2.5 μM, ARK1” value in test [16] is on record as 100.0%. Besides, in [17], the “DNA replication (YOYO-1 signal)” value was “delayed increase in the YOYO-1 signal at 54 h”.
Turning to `CN1CCN(c2ccc(OC(F)(F)F)c(Nc3ncc4c(n3)-c3c(c(C(N)=O)nn3CCO)CC4)c2)CC1` [NMS-P937 (15), NMS-P937], the half-maximal effective concentration (EC50) in test [1] (setting [22]) is over 5000 nM; in test [2] (setting [23]), 6010 ± 79 nM. In test [2], the “Selectivity Index” value was […]. Moreover, in [3], the IC50 is […].
Consider `Cc1ncc(CCCN(C)C)cc1Nc1ncc2c(n1)-c1ccc(C(F)(F)F)cc1NC(=S)C2` [MLN0905 (13), MLN0905], for which the EC50 in test [1] (setting [22]) amounted to 1820 ± 260 nM; in test [2] (setting [23]) it was 3940 ± 110 nM. In addition, the “Selectivity Index” value in test [2] worked out at 2.0. Besides, the IC50 in test [3] is 2 nM.
As to `Nc1ccc(-c2ccc3ncc4ccc(=O)n(-c5cccc(C(F)(F)F)c5)c4c3c2)cn1` [torin2], in test [1] (setting [22]), the EC50 amounted to 5.3 ± 0.3 nM.
In the case of `CC[C@@H]1C(=O)N(C)c2cnc(Nc3ccc(C(=O)NC4CCN(C)CC4)cc3OC)nc2N1C1CCCC1` [BI-2536 (1), BI-2536], in test [4], the “compound incubation required” value lay in the range of 24 to 48 h. Also, the EC50 was 178 ± 12 nM in test [1] (setting [20]); 3730 ± 520 nM in test [2] (Homo sapiens, HepG2, 48 h); 135 ± 35 nM in test [7] (setting [21]); 288 nM in test [7] (3D7, read-out: EC50, 3D7 clone A10). In addition, the “inhibitory effect in PfARK2” value in test [18] is on record as “neither compound displayed inhibitory effects”. Also, in test [19], the “activity in PfARK2” value is “lack of activity”.
For `COc1cc2ncn(-c3cc(OCc4ccccc4C(F)(F)F)c(C(N)=O)s3)c2cc1OC` [GW843682 (17), GW843682], the EC50 is over 5000 nM in test [1] (setting [22]) and over 25000 nM in test [2] (setting [23]). For the same molecule, the IC50 in [3] was 2.2 nM.
Turning to SBE 13 [SBE 13 (14)], the EC50 in test [1] (setting [22]) was 3570 ± 130 nM; in test [2] (setting [23]) it was over 25000 nM. In test [2], the “Selectivity Index” value was over 7.0. Also, the IC50 in test [3] was 0.2 nM.
Take `C[C@@H](Oc1cc(-n2cnc3ccc(CN4CCN(C)CC4)cc32)sc1C(N)=O)c1ccccc1C(F)(F)F` [GSK461364 (12), GSK461364]: in [4], the “compound incubation required” value lay within 24 to 48 h. Further, the EC50 worked out at 533 ± 78 nM in test [1] (setting [20]); 1910 ± 210 nM in [2] (Homo sapiens, HepG2, 48 h); 1410 ± 77 nM in test [7] (setting [21]). In addition, the remaining activity at 2.5 µM in [5] came out at 100%; in [6], 100%; in test [8] it was 100%; in [9], 9.7%; in test [10], 100%; in [11], 100%. Also, the remaining activity at 2.5 µM in [15] stood at 100%. Also, the 50% inhibitory concentration (IC50) was 19 nM in [9] and 2.2 nM in [3]. The “% activity remaining at 2.5 μM, ARK3” value in [12] came to 96.2%. Besides, the “% activity remaining at 2.5 μM, NEK1” value in test [13] came to 100.0%. Also, in test [14], the “% activity remaining at 2.5 μM, PK9” value was determined as 100.0%. The “inhibitory effect in PfARK2” value in [18] is “neither compound displayed inhibitory effects”. The “% activity remaining at 2.5 μM, ARK1” value in test [16] is 99.5%.
